In patent EP1016409B1, “FREEZE DRIED COMPOSITION COMPRISING GLYCOSPHINGOLIPIDS” (KIRIN BEER KABUSHIKI KAISHA, priority 1997, dated 1998):

How the values were obtained:
Type in all cases: physicochemical
[1] = Selection of a solvent for the active component: solubility judged by naked eye
Experimental: First, […] of the active component (KRN7000) was weighed and stirred in 100 ml of a variety of solvents (Table 3) in a heated bath to 80°C for 20 minutes in order to form a solution having a concentration of 10 µg/ml. With respect to the solvents which were judged to have successfully dissolved 10 µg/ml of the active component, dissolution was further tried in the same manner as above in order to form a solution having a concentration of 100 µg/ml. With respect to the solvents which were judged to have successfully dissolved 100 µg/ml of the active component, dissolution was further tried in the same manner as above in order to form a solution having a concentration of 200 µg/ml. After cooling with running water, the solubility of the component was judged.
The solubility of the component was judged by the test described below. First, transparent colorless glass vials having a volume of 5 ml were charged with about 1.5 ml portion of each sample and sealed up. The vial was cleaned outside and placed beneath the white light source in a darkroom for observation with naked eye at the position of a luminous intensity of about 5,000 lux. When the sample was clear with no precipitates, it was judged that the active component was dissolved.

[2] = Cooling condition after dissolution with heating 1: turbidity; settings: Polysorbate 20 0.5%, histidine 0.75%, sucrose 5.6%, cooling 73°C → 30°C; for Turbidity After filtration / Turbidity Before filtration: 800 mg KRN7000 in 4 liters; for Turbidity After filtration: 0.22 µm filter; for Turbidity After filtration / Turbidity Lyophilized composition: kaolin 1 µg/ml = turbidity 1.00; for Turbidity Before filtration: kaolin 1 µg/ml = turbidity 1.00, 660 nm; for Turbidity Lyophilized composition: reconstituted after 3 hours at room temperature (25°C)
Experimental: First, Polysorbate 20 was dissolved in distilled water in a concentration of 0.5%, histidine in a concentration of 0.75%, and sucrose in a concentration of 5.6%. Next, 800 mg of the active component (KRN7000) was weighed and stirred in 4 liters of the solvent under heating at 73°C for 30 minutes in order to form a solution. After dissolution, the mixture was divided into about 500 ml portions, cooled with stirring from 73°C to 30°C (6 minutes), from 73°C to 30°C (23 minutes), and from 73°C to 30°C (120 minutes). After cooling, the mixtures were filtered through a 0.22 µm filter, and transparent colorless glass vials having a volume of 5 ml were charged with a 1 ml portion of each of a variety of solutions thus obtained and subjected to lyophilization. Lyophilization was carried out under the condition of preliminary freezing at -50°C for 5 hours and drying at -15°C for 48 hours, 10°C for 12 hours, and finally at 25°C for 7 hours to give the lyophilized product. The degree of vacuum was set at 0.1 Torr or less during drying step.
The turbidity of the solutions prepared respective cooling conditions before or after the filtration step, and the lyophilized composition thus obtained which were reconstituted after leaving standing at room temperature (25°C) for 3 hours from the lyophilization step, were measured. In this connection, the lyophilized composition was reconstituted in 1 ml of distilled water for injection, left standing for 30 minutes, and turbidity was measured when the foams generated on reconstitution disappeared.
(§1) The turbidity was measured by the following method: various dilutions including 50-fold dilution (kaolin 2 µg/ml, turbidity 2.00), 100-fold dilution (kaolin 1 µg/ml, turbidity 1.00), and 200-fold dilution (kaolin 0.5 µg/ml, turbidity 0.50) were prepared by diluting the turbidity standard (kaolin, […]) with distilled water. A calibration curve was made by measuring the absorbance at a wave length of 660 nm with a control of distilled water and the various dilutions in a spectrophotometer (HITACHI U-3210). Next, the absorbance of the solutions was measured under the same condition as above to calculate the turbidity of the solutions.

[3] = Cooling condition after dissolution with heating 2: turbidity after storage; settings: lyophilized composition (Polysorbate 20 0.5%, histidine 0.75%, sucrose 5.6%) stored at 50°C for 1 week, reconstituted
Experimental: First, Polysorbate 20 was dissolved in distilled water in a concentration of 0.5%, histidine in a concentration of 0.75%, and sucrose in a concentration of 5.6%. Next, 800 mg of the active component (KRN7000) was weighed and stirred in 4 liters of the solvent under heating at 73°C for 30 minutes in order to form a solution. After dissolution, the mixture was divided into about 500 ml portions, cooled rapidly - gradually with stirring under the following six rates:
After cooling, the mixtures were filtered through a 0.22 µm filter, and transparent colorless glass vials having a volume of 5 ml were charged with a 1 ml portion of each of a variety of solutions thus obtained and subjected to lyophilization. Lyophilization was carried out under the condition of preliminary freezing at -50°C for 5 hours and drying at -15°C for 48 hours, 10°C for 12 hours, and finally at 25°C for 7 hours to give the lyophilized product. The degree of vacuum was set at 0.1 Torr or less during drying step.
After lyophilization, the lyophilized composition thus obtained was stored at 50°C for 1 week, and the turbidity of the reconstituted solution was measured. In this connection, the turbidity of the lyophilized composition was used which was reconstituted in 1 ml of distilled water for injection and left standing for 30 minutes, and turbidity was measured when the foams generated on reconstitution disappeared.
as §1

Judgment of solubility (by naked eye) ([1]; solvent 0.5% Cremophor, KRN7000 10 µg/ml): + (+ not dissolved (or deposited))
Judgment of solubility (by naked eye) ([1]; solvent 0.5% HCO 50, KRN7000 10 µg/ml): + (+ not dissolved (or deposited))
Judgment of solubility (by naked eye) ([1]; solvent 0.5% HCO 60, KRN7000 10 µg/ml): + (+ not dissolved (or deposited))
Judgment of solubility (by naked eye) ([1]; solvent 0.5% Polyoxamer 188, KRN7000 10 µg/ml): + (+ not dissolved (or deposited))
Judgment of solubility (by naked eye) ([1]; solvent 0.5% Polysorbate 20, KRN7000 10 µg/ml): - (- dissolved)
Judgment of solubility (by naked eye) ([1]; solvent 0.5% Polysorbate 20, KRN7000 100 µg/ml): - (- dissolved)
Judgment of solubility (by naked eye) ([1]; solvent 0.5% Polysorbate 20, KRN7000 200 µg/ml): - (- dissolved)
Judgment of solubility (by naked eye) ([1]; solvent 0.5% Polysorbate 80, KRN7000 10 µg/ml): - (- dissolved)
Judgment of solubility (by naked eye) ([1]; solvent 0.5% Polysorbate 80, KRN7000 100 µg/ml): + (+ not dissolved (or deposited))
Judgment of solubility (by naked eye) ([1]; solvent 1N HCl, KRN7000 10 µg/ml): + (+ not dissolved (or deposited))
Judgment of solubility (by naked eye) ([1]; solvent 1N NaOH, KRN7000 10 µg/ml): + (+ not dissolved (or deposited))
Judgment of solubility (by naked eye) ([1]; solvent Distilled water, KRN7000 10 µg/ml): + (+ not dissolved (or deposited))
Judgment of solubility (by naked eye) ([1]; solvent Ethanol, KRN7000 10 µg/ml): - (- dissolved)
Judgment of solubility (by naked eye) ([1]; solvent Ethanol, KRN7000 100 µg/ml): - (- dissolved)
Judgment of solubility (by naked eye) ([1]; solvent Ethanol, KRN7000 200 µg/ml): - (- dissolved)
Judgment of solubility (by naked eye) ([1]; solvent Glycerol, KRN7000 10 µg/ml): - (- dissolved)
Judgment of solubility (by naked eye) ([1]; solvent Glycerol, KRN7000 100 µg/ml): + (+ not dissolved (or deposited))
Judgment of solubility (by naked eye) ([1]; solvent Macrogol 400, KRN7000 10 µg/ml): - (- dissolved)
Judgment of solubility (by naked eye) ([1]; solvent Macrogol 400, KRN7000 100 µg/ml): + (+ not dissolved (or deposited))
Judgment of solubility (by naked eye) ([1]; solvent Propylene glycol, KRN7000 10 µg/ml): - (- dissolved)
Judgment of solubility (by naked eye) ([1]; solvent Propylene glycol, KRN7000 100 µg/ml): + (+ not dissolved (or deposited))
Turbidity After filtration ([2]; 6 minutes): 0.13
Turbidity Before filtration ([2]; 6 minutes): 0.23
Turbidity After filtration ([2]; 23 minutes): 0.15
Turbidity Before filtration ([2]; 23 minutes): 0.58
Turbidity After filtration ([2]; 120 minutes): 0.16
Turbidity Before filtration ([2]; 120 minutes): 0.64
Turbidity Lyophilized composition ([2]; 6 minutes): 0.24
Turbidity Lyophilized composition ([2]; 23 minutes): 0.36
Turbidity Lyophilized composition ([2]; 120 minutes): 0.36
Turbidity ([3]; cooling ① 73°C → 30°C, 4 minutes (10.75°C/min)): 2.08
Turbidity ([3]; cooling ② 73°C → 30°C, 6 minutes (7.17°C/min)): 2.67
Turbidity ([3]; cooling ③ 73°C → 30°C, 7 minutes (6.14°C/min)): 3.31
Turbidity ([3]; cooling ④ 73°C → 30°C, 10 minutes (4.30°C/min)): 3.80
Turbidity ([3]; cooling ⑤ 73°C → 30°C, 23 minutes (1.87°C/min)): 6.44
Turbidity ([3]; cooling ⑥ 73°C → 30°C, 120 minutes (0.36°C/min)): 18.84
SMILES: CCCCCCCCCCCCCCCCCCCCCCCCCC(=O)N[C@@H](CO[C@H]1O[C@H](CO)[C@H](O)[C@H](O)[C@H]1O)[C@H](O)[C@H](O)CCCCCCCCCCCCCC [KRN7000, (2S,3S,4R)-1-(α-D-galactopyranosyloxy)-2-hexacosanoylamino-3,4-octadecanediol]
